# Data taken from patent publication US7538182B2, “Polypeptide and protein derivatives and process for their preparation” (Amylin Pharmaceuticals, Inc., priority 1986, dated 2009).
# What was measured:
# [1] = assay type: physicochemical
# Text: Once the iron had been removed, the solution was adjusted to pH 5.5 with 1.7 M sodium acetate buffer. The resulting precipitate was carefully washed by centrifugation in 0.7 M sodium acetate buffer, until the residual EDTA concentration could be expected to be negligible compared to that of the conjugate.
# [2] = Removal of iron with propionic acid/EDTA, followed by spectroscopy (loss of the 400-450 nm peak); assay type: physicochemical; conditions: test solution of 1 mM ferrioxamine B
# Text: The pink colour of the solution was rapidly lost. If desired the reaction can be followed spectroscopically, since after removal of iron the peak between 400 nm and 450 nm, characteristic of the ferrioxamine B conjugate will disappear completely.
Compound,storage stability (capacity to be labelled) [1],rate of the removal of iron ([2]; pH 2.5),half-time for the removal of iron ([2]; pH 3),half-time for the removal of iron ([2]; pH 3.5)
des-Ala^B30-insulin/desferrioxamine B conjugate [iron-free protein derivative],without apparent impairment,–,–,–
CC(=O)N([O-])CCCCCNC(=O)CCC(=O)N([O-])CCCCCNC(=O)CCC(=O)N([O-])CCCCCN.[Fe+3] [ferrioxamine B],–,too rapid to follow,approximately 90 seconds,approximately 340 sec
